The values below come from patent publication US10000467B2, “Cyanine compounds” (Pierce Biotechnology, Inc., priority 2012, dated 2018).

Experiment [1] deals with HDAC2. Kind of experiment: Immunofluorescence in U2OS cells, rabbit-anti-HDAC2 primary antibody. Format: cell-based, human. Here is the method: (§1) The inventive compounds and commercial dye were evaluated for immunofluorescence in cell based assays using the following protocol. Plates containing U2OS cells (human osteosarcoma cell line) were fixed in 4% paraformaldehyde in PBS/0.1% Triton X-100 for 15 min at room temperature. The cells were then […] with 2% BSA in PBS/0.1% Triton X-100 for 15 min at room temperature. Negative controls contain only 2% BSA/PBS-0.1% Triton-X100 blocker. Diluted primary antibodies, mouse-anti-protein disulphide isomerase (PDI) or rabbit-anti-HDAC2, diluted in 2% BSA/PBS-0.1% Triton-X100 were added to the plates and incubated for one hour at room temperature. Negative controls contain only 2% BSA/PBS-0.1% Triton-X100 blocker. The plates were washed 3×100 μl with PBS. Based on the calculated protein concentrations, the conjugates made in Example 22 were diluted to 4 μg/ml in PBS/0.1% Triton X-100 and added to the plates (50 μl/well) and incubated one hour in the dark at room temperature. After incubation, the […] antibody solution was removed from the plates, and the plates were washed 3×100 μl with PBS. One hundred μl of 0.1 μg/ml Hoechst dye in PBS was added per well. The plates were then scanned on an ArrayScan® Plate Reader for imaging and quantitation.

The subject of experiment [2] is protein disulphide isomerase (PDI). Kind of experiment: Immunofluorescence in U2OS cells, mouse-anti-PDI primary antibody. Format: cell-based, human. The settings on record: FIGS. 17-19; GAM conjugates at 2.5×-15× molar excess. Here is the method:
as §1

Where [3] appears, read: FIGS. 20-22, GAR conjugates purified with 200 μl of resin/mg of protein.

In the case of Alexa Fluor 647, the Quenching result is reported as “significant quenching at high molar excesses” in experiment [1] (FIGS. 14-16, GAR conjugates at 2.5×-15× molar excess); “significant quenching above 2.5× molar excess” in experiment [1] (setting [3]); “significant quenching above 2.5× molar excess” in experiment [2]. Besides, the “Fluorescence intensity (Mean Total Intensity)” value in experiment [1] (setting [3]) and in experiment [2] was “highest binding intensity at 2.5× dye molar excess” throughout.
